How the values were obtained:
[1] = cited from earlier work
[2] = system: PSMA-null PC3 cells; assay: Uptake/internalization by confocal microscopy and flow cytometry, PSMA-null PC3 cells; assay type: cell-based; details: 1 μM, 2 h, confocal microscopy
Protocol: (§1) Cells were seeded at 20,000 cells/well in 8-well Lab-Tek® II chambered #1.5 German coverglass system (Thermo Fisher Sci., Waltham, Mass.), and incubated at 37° C. under 5% CO2 for 2 days. Cells were incubated with 1 μM of DAC in which the dA16 aptamer was labeled with Quasar 570 at the 5′-terminus and the T16 aptamer was labeled with Quasar 670 dyes in RPMI with 10% FBS for 2 h at 37° C. Cells were washed with fresh media and DPBS, followed by a 5 min fixation with 3.7% formaldehyde in DPBS. Cells were visualized using a Zeiss LSM510 confocal microscope (Carl Zeiss, Oberkochen, Germany). Cells were also incubated with 1 μM of DAC-D (or the non-covalent DAC+D), for 2 h. DAC were only labeled with Quasar 670 for these studies as the Quasar 570 emission would interfere with the Dox emission. Cells were washed, fixed, and imaged using identical procedures.
(§2) PC3 and C4-2 cells were incubated with 1 μM of DAC for 2 h at 37° C. Dimers were fluorescently labeled with either Quasar 570 or 670 alone, or both. Cells were trypsinized and washed with PBS twice. Cells re-suspended in PBS were analyzed to measure their intracellular fluorescence using the Accuri™ C6 flow cytometer (BD Biosciences).

[3] = system: PSMA+ C4-2 cells; assay: Uptake/internalization by confocal microscopy and flow cytometry, PSMA+ C4-2 cells; assay type: cell-based
Protocol: as §1, §2

[4] = system: PC3 cells; assay: Cytotoxicity, CellTiter-Glo cell viability assay, PC3 cells; assay type: cell-based
Protocol: (§3) PC3, C4-2, and C4-2Luc cells were seeded at a density of 3,000 cells/well in 96-well plates and incubated at 37° C. under 5% CO2. Next day, the cells were treated with Dox, DAC+Dox, or DAC-D for 24 h. Next day the treatment was removed, cells were washed once with warm fresh media and incubated for another 48 h in fresh media. Cell counts were measured indirectly by measuring the ATP amounts using CellTiter-Glo® luminescent cell viability assay (Promega, Madison, Wis.) according to the manufacturer's protocol. In co-culture experiments, PC3 and C4-2Luc cells were each seeded at a density of 1,500 cells/well in 96-well plates. Co-cultured cells were treated with Dox, DAC+Dox, or DAC-D and cell viability was also measured using the CellTiter-Glo® assay. Luciferase levels were measured for co-cultures of PC3 and C4-2Luc cells using a luciferase reporter assay system (Promega). PC3 and C4-2Luc cells were seeded and treated as described above and the cells were lysed and luciferase activity was measured according to the manufacturer's protocol.

[5] = system: C4-2 cells; assay: Cytotoxicity, CellTiter-Glo cell viability assay, C4-2 cells; assay type: cell-based
Protocol: as §3

[6] = Temperature-dependent UV melting (thermal stability of dimeric aptamer complexes); assay type: physicochemical; details: UV absorbance at 260 nm, heating 0.7° C./min
Protocol: Temperature-dependent UV absorption spectra were obtained using a Beckman Coulter DU-800 UV-Vis spectrophotometer. Samples of DAC, DAC-D, and DAC+D were prepared. The temperature was increased at a rate of 0.7° C./min over the range 20-85° C. and absorbance at 260 nm was measured for each sample, (400 μL, 1 μM) concentration.

[7] = Determination of Dox:DNA ratios by absorbance; assay type: physicochemical
Protocol: DNA Ratios: DNA samples were prepared in dH2O, and absorbencies were measured from 200-800 nm using a Beckman Coulter DU800 spectrophotometer. A standard curve of Dox was established between 1 μM and 10 μM by using absorbencies at 494 nm at 85° C. To assess the amount of Dox covalently bound to DNA, the samples were heated to 85° C. before measuring the absorbance at 494 nm and 260 nm. The 260 nm wavelength was used to determine the DNA content in the sample and to determine the Dox:DNA ratio.

| Compound | pKa of the doxorubicin amino group [1] | Dox internalization / nuclear accumulation ([2]; PC3 cells) | Dox internalization / nuclear accumulation ([3]; 1 μM, 2 h, confocal microscopy, C4-2 cells) | cytotoxicity (in words) [4] | reduction in viability ([5]; 2 μM Dox, 24 h treatment + 48 h growth, cell line not specified in the sentence (PC3 and C4-2)) [%] | cytotoxicity (in words) ([5]; C4-2 cells) | uptake of fluorescently-labeled aptamer ([2]; Quasar 570/670 labels) | dissociation temperature [6] [°C] | uptake of fluorescently-labeled aptamer ([3]; 1 μM, 2 h, Quasar 570/670 labels, confocal microscopy) | uptake after pre-incubation with J591 PSMA-specific monoclonal antibody ([3]; C4-2 cells pre-incubated with J591) | calc ratio (Dox bound per DAC) ([7]; Dox:DAC ratio 16x) | calc ratio (Dox bound per DAC) ([7]; Dox:DAC ratio 24x) | calc ratio (Dox bound per DAC) ([7]; Dox:DAC ratio 32x) | molar equivalents of doxorubicin that can be covalently bound to each DAC ([7]; titration) [molar equivalents] |
| --- | --- | --- | --- | --- | --- | --- | --- | --- | --- | --- | --- | --- | --- | --- |
| COc1cccc2c1C(=O)c1c(O)c3c(c(O)c1C2=O)C[C@@](O)(C(=O)CO)C[C@@H]3O[C@H]1C[C@H](N)[C@H](O)[C@H](C)O1 [Dox, doxorubicin] | 8.2 | readily accumulated | readily accumulated | highly cytotoxic | ~90 | highly cytotoxic | – | – | – | – | – | – | – | – |
| DAC: Dimer of PSMA DNA aptamer SZTI01 annealed through dCGGCA16GCCG / dCGGCT16GCCG tails (SEQ ID NO:5, 6) (chain 1 CGGCAAAAAAAAAAAAAAAAGCCG; chain 2 CGGCTTTTTTTTTTTTTTTTGCCG; DNA, backbone and methylation of C not given here; tails of DNA aptamer dimer, further chemistry not fully specified) | – | – | – | – | – | – | minimal uptake | ~58 | strong signal | attenuated | 10.8 | 14.18 | 13.7156 | 14 |

From patent publication US10105446B2, “Pharmaceutical compositions for high-capacity targeted delivery” (Wake Forest University Health Sciences, priority 2013, dated 2018)
